Results published in PubChem BioAssay (NCI).
Values joined by “and” are separate entries in the source; they are usually repeats but may differ in a detail not shown here. Equal values may be shown once.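 Values below derive from 48-hour exposures of cells grown in 96-well plates, with endpoints linearly interpolated between the two concentrations bracketing the appropriate inhibition level. The concentration for 50% growth inhibition is given as GI50. TGI: concentration producing complete growth inhibition.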

Experiments:
Experiment in all cases: NCI anticancer screen, dose series, 48 h
[1] = tested on: K-562 leukemia
[2] = tested on: NCI-H226 lung
[3] = tested on: UO-31 renal
[4] = tested on: SNB-75 CNS
[5] = tested on: SK-MEL-2 melanoma
[6] = tested on: SN12C renal
[7] = tested on: U251 CNS
[8] = tested on: SF-268 CNS
[9] = tested on: NCI-H522 lung
[10] = tested on: SNB-19 CNS

Compound	GI50 [1]	TGI [1] [µM]	GI50 [2] [µM]	TGI [2]	GI50 [3] [nM]	TGI [3] [µM]	GI50 [4]	TGI [4]	GI50 [5]	TGI [5]	GI50 [6]	TGI [6]	GI50 [7]	TGI [7]	GI50 [8]	TGI [8] [µM]	GI50 [9]	TGI [9]	TGI [10]	GI50 [10]
CCN=c1cc2sc3cc(NCC)c(C)cc3nc-2cc1C	358 nM	16.3	10.1	29 µM	2160	16.4	1800 nM	5.11 µM	1820 nM	4.64 µM	1500 nM	12.5 µM	646 nM	6.71 µM	2470 nM	14.4	419 nM	2.61 µM	–	–
CN(C)CC/C(=N\Nc1ccccc1)c1ccccc1	–	7.54	–	–	–	22.8	–	–	–	27.2 µM	–	–	–	> 100 µM	–	> 100	–	–	> 100 µM	–
CCc1nc(N)nc(C(=O)NCCNC(=O)c2nc(N)nc(CC)c2C)c1C	–	> 100	–	> 100 µM	–	> 100	–	> 100 µM	–	> 100 µM	–	> 100 µM	–	> 100 µM	–	> 100	–	–	> 100 µM	–
CSc1nc(NC(=O)O)c(N(C(C)=O)C(=O)O)c(=O)n1C	–	> 100	–	> 100 µM	–	> 100	–	–	–	> 100 µM	–	> 100 µM	–	> 100 µM	–	> 100	–	–	> 100 µM	–
CCn1c(O)c(C=N)c(=O)n(CC)c1=O	–	> 100	–	> 100 µM	–	> 100	–	> 100 µM	–	> 100 µM	–	> 100 µM	–	–	–	> 100	–	> 100 µM	> 100 µM	–
O=C1NC2CCC(C2)C1c1ccccc1 (stereo unspecified)	–	> 100	–	> 100 µM	–	> 100	–	> 100 µM	–	–	–	> 100 µM	–	> 100 µM	–	> 100	–	–	> 100 µM	–
O=C(Nc1ccc(F)cc1)C(=O)C(C1OC(=O)c2ccccc21)[N+](=O)[O-] (stereo unspecified)	–	> 100	–	> 100 µM	–	> 100	–	> 100 µM	–	> 100 µM	–	–	–	> 100 µM	–	> 100	–	–	> 100 µM	–
CC/C(=C(/CC)c1ccc(O)cc1)c1ccc([O-])cc1.CC/C(=C(/CC)c1ccc(O)cc1)c1ccc([O-])cc1.O=C([CH-]C(=O)c1ccccc1)c1ccccc1.O=C([CH-]C(=O)c1ccccc1)c1ccccc1.[Ti+4]	3510 nM	> 100	23.6	45.5 µM	21800	38.6	–	–	11900 nM	25.2 µM	14000 nM	26.9 µM	13900 nM	26.9 µM	18000 nM	73.2	–	–	27.8 µM	14700 nM
Cc1cc(C)nc(NS(=O)(=O)c2ccc(Nc3c4ccc(Cl)cc4nc4c(C(=O)Nc5ccc(S(=O)(=O)N=C(N)N)cc5)cccc34)cc2)n1	–	> 100	–	–	–	> 100	–	> 100 µM	–	–	–	> 100 µM	–	> 100 µM	–	> 100	–	> 100 µM	> 100 µM	–
O=c1[nH]ccc2nc(N3CCC(O)CC3)nc(Nc3cccc(C(F)(F)F)c3)c12	3140 nM	> 100	3.2	17.7 µM	785	23	5760 nM	82.1 µM	–	–	4070 nM	> 100 µM	6150 nM	> 100 µM	3060 nM	35.3	2360 nM	10.1 µM	> 100 µM	18100 nM
O=C(O)CC12C3C4C5C3C1C5C42 (stereo unspecified)	–	> 100	–	–	–	> 100	–	> 100 µM	–	> 100 µM	–	> 100 µM	–	> 100 µM	–	> 100	–	> 100 µM	> 100 µM	–
CC(C)CNc1nc(-c2ccccc2)nc2ccccc12	11100 nM	30.8	16.9	35 µM	17300	50.5	–	–	29600 nM	> 100 µM	18400 nM	38.6 µM	12200 nM	24.8 µM	18300 nM	37.4	26300 nM	> 100 µM	39.6 µM	19200 nM
COc1cc2cc(C(=O)Nc3cc(N)c4ccccc4c3CCCl)[nH]c2c(OC)c1OC	46.6 nM	2.5	0.115	0.308 µM	35.3	41.2	65.6 nM	0.202 µM	89.5 nM	0.174 µM	54.8 nM	0.611 µM	–	–	17 nM	6.87	15.3 nM	0.271 µM	> 10.2 µM	122 nM
Cc1ccc(NC(=O)CCC/C(CC(=O)c2ccc(Br)cc2)=N/NC(=O)CC#N)cc1	–	–	–	> 100 µM	–	> 100	–	> 100 µM	–	> 100 µM	–	> 100 µM	–	> 100 µM	–	> 100	–	–	> 100 µM	–
Cc1cc(N2CCN(c3ccnc4cc(Cl)ccc34)CC2)nc(NC2CCCCC2)n1	2100 nM	5.64	3.23	15 µM	1400	3.13	1790 nM	3.95 µM	–	–	1820 nM	3.73 µM	1720 nM	3.37 µM	2340 nM	5.41	1930 nM	3.8 µM	11 µM	2980 nM
CN(C)C1CCN(C(=O)c2ccc(NC(=O)Nc3ccc(-c4nc(N5CCOCC5)nc(N5CCOCC5)n4)cc3)cc2)CC1	130 nM and 35.7 nM and 132 nM	–	–	0.38 µM and 1.95 µM and 0.257 µM	–	–	< 10 nM and 5.85 nM and 5.68 nM	0.0164 µM and 0.0427 µM and 0.0783 µM	23.6 nM and 24.3 nM and 19.6 nM	0.0744 µM and 0.113 µM and 0.09 µM	< 12.9 nM and 13.3 nM and 20.8 nM	13.1 µM and 2.5 µM and > 10 µM	17.1 nM and 11.6 nM and 37.5 nM	15.1 µM and 2.5 µM and 2.44 µM	22.9 nM and 20.7 nM and 43.4 nM	–	10.2 nM and 10.3 nM and 24.6 nM	0.0758 µM and 0.207 µM and 0.371 µM	4.23 µM and 2.5 µM and 0.875 µM	< 12.3 nM and 13.1 nM and 17.4 nM
CC(C)C1CCC/C=C/C=C/C=C/C=C/C(OC2OC(C)C(O)C(N)C2O)CC2OC(O)(CC(O)CC(O)C(O)CCC(=O)O1)CC(O)C2C(=O)O (stereo unspecified)	–	> 52.5	–	–	–	> 52.5	–	> 52.5 µM	–	–	–	> 52.5 µM	–	> 52.5 µM	–	> 52.5	–	> 52.5 µM	> 52.5 µM	–
COc1ccc2cc3[n+](cc2c1OC)CCc1cc(O)c(O)cc1-3	–	> 100	–	> 100 µM	–	> 100	–	> 100 µM	–	–	–	> 100 µM	–	> 100 µM	–	> 100	–	> 100 µM	> 100 µM	–
